Measured values from patent US10494333B2, “Compound having BLT inhibitory activity and composition, for preventing or treating inflammatory diseases, comprising same as active ingredient” (DONGGUK UNIVERSITY INDUSTRY-ACADEMIC COOPERATION FOUNDATION, priority 2015, dated 2019).

What was measured:
[1] = tested on: ovarian cancer cells (SKOV-3 cells); assay: Death of anticancer agent-resistant ovarian cancer cells on co-treatment with cisplatin (MTT); type: cell-based; settings: 10 μM pre-treated 30 minutes, cisplatin 50 μM, 24 hours, LY255283 compared to cisplatin alone, AC compounds compared with LY255283 co-treatment
Protocol: The death of cancer cells was detected using a 3-(4,5-dimethylthiazol-2-yl)-2,5-diphenyltetrazolium bromide (MTT) method. More specifically, 1×10^5 of the ovarian cancer cells (SKOV-3 cells) resistant to the anti-cancer agents were dispensed on a 12-well culture dish, and cultured for 24 hours. A 0.5% serum RPMI medium was pre-treated with each of the compound prepared in one of the examples (10 μM), 10 μM of DMSO (compound solvent) as a control, and 10 μM of LY255283 as a positive control for 30 minutes. Afterward, 50 μM of an anti-cancer agent, cisplatin, was treated, and then the cells were cultured 24 hours. A 20 μL of an MTT solution (5 mg/mL, Sigma-Aldrich) was added to each well, and the cells were cultured in a humid CO2 incubator at 37° C. for 4 hours. Afterward, the supernatant was removed, and 500 µL of DMSO was added to each well to dissolve insoluble violet formazan crystals. Absorbance was measured using a microplate reader (Molecular Devices, Sunnyvale, Calif.) at 550 nm, and the measurement was repeated three times.

BLT1 = target: T1, BLT1 (Homo sapiens, UniProt Q15722); assay: LTB4-induced chemotactic motility of BLT1-expressing cells (Transwell); type: cell-based; settings: CHO-BLT1 cells, LTB4 10 nM
T1 construct: expressed in transfected cells; host or cells: CHO cells (CHO-BLT1)
T1 sequence (Q15722 whole entry, species assumed): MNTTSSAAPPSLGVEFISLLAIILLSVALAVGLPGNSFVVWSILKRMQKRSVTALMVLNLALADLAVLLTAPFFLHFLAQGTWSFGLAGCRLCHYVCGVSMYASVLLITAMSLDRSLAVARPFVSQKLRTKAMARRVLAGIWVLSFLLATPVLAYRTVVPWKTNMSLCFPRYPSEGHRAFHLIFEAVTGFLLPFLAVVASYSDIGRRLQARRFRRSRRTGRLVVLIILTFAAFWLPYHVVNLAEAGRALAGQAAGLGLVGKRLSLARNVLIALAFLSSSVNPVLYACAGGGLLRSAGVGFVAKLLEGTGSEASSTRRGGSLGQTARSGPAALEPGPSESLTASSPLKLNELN
Protocol: (§1) Chemotactic motility was analyzed using a Transwell chamber including a polycarbonate filter (8-μm pore size, Corning Costar) with a 6.5-mm diameter. Specifically, the lower surface of the filter was coated with 10 μg/mL fibronectin in a serum-free RPMI 1640 medium at 37° C. for 1 hour. The experiment was performed by placing the filter dried and coated with RPMI 1640 media containing various amounts of LTB4 in the lower wells of the Transwell chamber, and loading CHO cells, which stably express both BLT1 and BLT2, into the upper wells containing serum-free RPMI 1640 media finally at 2×10^4 cells/100 μL. To evaluate the effect of inhibitors, the cells were pre-treated with each inhibitor for 30 minutes before dispensing. After the cells were cultured at 37° C. in 5% CO2 for 3 hours, the filters were fixed with methanol for 3 minutes, and stained with hematoxylin and eosin for 10 minutes. […] The chemotactic motility was quantitatively analyzed by counting the cells on the lower side of the filter under an optical microscope (magnification, 200×). For each analysis, 6 fields were subjected to counting, each sample was analyzed twice, and the analysis was repeated three times.

[2] = tested on: BLT2-expressing cells (CHO-BLT2 cells); assay: LPA-induced chemotactic motility of CHO-BLT2 cells (Transwell); type: cell-based; settings: LPA 100 nM
Protocol: Chemotactic motility was analyzed using a Transwell chamber including a polycarbonate filter (8-μm pore size, Corning Costar) with a 6.5-mm diameter. […] To evaluate the effect of inhibitors, the cells were pre-treated with each inhibitor for 30 minutes before dispensing. After the cells were cultured at 37° C. in 5% CO2 for 3 hours, the filters were fixed with methanol for 3 minutes, and stained with hematoxylin and eosin for 10 minutes. […] The chemotactic motility was quantitatively analyzed by counting the cells on the lower side of the filter under an optical microscope (magnification, 200×). For each analysis, 6 fields were subjected to counting, each sample was analyzed twice, and the analysis was repeated three times.

BLT2 [3] = target: T2, BLT2 (Homo sapiens, UniProt Q9NPC1); assay: biochemical
T2 sequence (Q9NPC1 with tags, fused parts or gaps): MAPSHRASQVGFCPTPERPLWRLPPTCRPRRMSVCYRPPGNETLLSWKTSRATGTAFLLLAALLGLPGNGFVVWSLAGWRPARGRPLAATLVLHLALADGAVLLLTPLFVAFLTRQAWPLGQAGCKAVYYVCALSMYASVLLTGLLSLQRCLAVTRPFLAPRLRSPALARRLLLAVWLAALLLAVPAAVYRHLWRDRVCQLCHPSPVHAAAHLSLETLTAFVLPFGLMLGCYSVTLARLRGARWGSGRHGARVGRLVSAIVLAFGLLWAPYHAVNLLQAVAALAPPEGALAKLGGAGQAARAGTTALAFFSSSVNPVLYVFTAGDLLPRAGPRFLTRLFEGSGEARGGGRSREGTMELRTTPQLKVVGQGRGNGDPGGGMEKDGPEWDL
Protocol: (§2) In addition, in order to prepare stable CHO/BLT2 clones, CHO-K1 cells were transformed with pcDNA3-long form BLT2 encoding HA-tagged human BLT2, and selected with 0.4 mg/ml of G418 (Invitrogen, Carlsbad, Calif., USA).

asthma-induced mice = assay: Airway hyperresponsiveness (AHR) in OVA asthma-induced mice; type: in vivo
Text: (§3) Mast cells play a pivotal role in the initial reaction to asthma, and when an allergen enters the body from the outside through an airway, the mast cells are activated, thereby secreting various cytokines (interleukin-4 and interleukin-13). Due to the cytokines, the influx of inflammatory cells, and the generation of mucus and the airway contraction occur. The inventors used 7-week-old (18 to 20 g) female BALB/c mice provided by Orient (Seoungnam, Korea) for the experiment to confirm the anti-asthma effect, and asthma was induced in the mice. On day 1 and day 14, 2.5 mg of an adjuvant aluminum hydroxide gel (alum; Pierce, Rockford, Ill.) containing a […] of ovalbumin (OVA) was injected intraperitoneally to sensitize the female […] mice. After the two initial sensitizations, on day 21, day 22 and day 23, 1% OVA was sprayed into the mice using an ultrasonic nebulizer. […] After the initial sensitizations, on day 24, AHR was detected, and on day 25, the mice were dissected to observe asthma phenotypes such as the expression of an inflammatory cytokine IL-4, and the influx of the inflammatory cells (neutrophils). In addition, the AHR detection was performed after an airway constrictor methacholine (6.25 to 50 mg/ml depending on conditions) was administered to the mice. The administration of the airway constrictor was performed by spraying through an inlet of the chamber using an ultrasonic nebulizer for 3 minutes. The AHR was analyzed using an enhanced pause as the indicator of the asthma phenomenon.

interleukin-4 (IL-4) = assay: IL-4 production in severely asthma-induced mice; type: in vivo; settings: severely asthma-induced mice (FIG. 8), cells separated from the abdominal cavity, pre-treated (method 5 mg/kg intraperitoneally)
Text: as §3, with “The administration of the airway constrictor was performed by spraying through an inlet of the chamber using an ultrasonic nebulizer for 3 minutes.” left out

[4] = tested on: BLT2-expressing cells (CHO-BLT2 cells); assay: Inhibition of LTB4-induced growth of BLT2-expressing cells (MTT); type: cell-based, human; settings: LTB4 300 nM, 24 hours
Protocol: Cell viability according to treatment of the compounds prepared in the examples were measured by a 3-(4,5-dimethylthiazol-2-yl)-2,5-diphenyltetrazolium bromide (MTT) method.
More specifically, 1×10^4 each of the BLT2-nonexpressing cells (CHO-pcDNA3.1 cells) and BLT2-expressing cells (CHO-BLT2 cells), which were prepared in Experimental Example 1, were dispensed in a […], and cultured for 24 hours. Afterward, the culture medium was removed, a serum-free RPMI medium was added, and after two hours, the cells were pre-treated with each of the compound prepared in one of the examples (10 μM), 10 μM DMSO (compound solvent) as a control, and 10 μM of 1-[5-ethyl-2-hydroxy-4-[[6-methyl-6-(1H-tetrazol-5-yl)heptyl]oxy]phenyl]-ethanone (LY255283; Cayman) as a positive control for 1 hour. Subsequently, after treatment of LTB4 (300 nM), the cells were cultured for 24 hours. 20 μL of an MTT solution (5 mg/mL, Sigma-Aldrich) was added to each well, the cells were cultured in a humid CO2 incubator at 37° C. for 4 hours, and then the supernatant was removed, and 200 μL of DMSO was added to each well to dissolve insoluble violet formazan crystals. Absorbance was measured using a microplate reader (Molecular Devices, Sunnyvale, Calif.) at 550 nm, and the measurement was repeated three times.

BLT2 [5] = target: T2, BLT2; assay: LTB4-induced BLT2-dependent chemotactic motility (Transwell); type: cell-based; set-up: expressed in transfected cells; settings: CHO-BLT2 cells, LTB4 300 nM
Protocol: as §2, §1

[6] = severely asthma-induced mice (FIG. 7), airway constrictor 50 mg/ml, pre-treated (method 5 mg/kg intraperitoneally)

CCCCC(=O)N(Cc1ccc(-c2ccc(O)cc2)cc1)c1cccc(F)c1 [AC-1070, N-(3-fluorophenyl)-N-((4′-hydroxybiphenyl-4-yl)methyl)pentaneamide]
death of cancer cells on co-treatment with cisplatin [1]: highly increase

CCCCC(=O)N(Cc1ccc(-c2ccc(C(=O)O)cc2)cc1)c1ccc(F)cc1 [AC-1072, 4′-((N-(4-fluorophenyl)pentaneamido)methyl)biphenyl-4-carboxylic acid]
death of cancer cells on co-treatment with cisplatin [1]: highly increase

CCCCC(=O)N(Cc1ccc(-c2ccc(OCC(=O)O)cc2)cc1)c1ccccc1 [AC-1073, 2-(4′-((N-phenylpentaneamido)methyl)biphenyl-4-yloxy)acetic acid]
death of cancer cells on co-treatment with cisplatin [1]: highly increase

CCCCC(=O)N(Cc1ccc(-c2ccc(OCC(=O)O)cc2)cc1)c1cccc(F)c1 [AC-1074, 2-(4′-((N-(3-fluorophenyl)pentaneamido)methyl)biphenyl-4-yloxy)acetic acid]
death of cancer cells on co-treatment with cisplatin [1]: highly increase
change in chemotactic motility compared with LTB4 (DMSO+) (BLT1; 10 μM pre-treatment): no change
change in chemotactic motility compared with LPA (DMSO+) ([2]; 10 μM pre-treatment): no change
IC50 (BLT2 [3]): 140 nM
AHR reduced (asthma-induced mice; asthma-induced mice (FIG. 6), airway constrictor methacholine 50 mg/ml, pre-treated (printed 10 μM; method 5 mg/kg intraperitoneally)): 42%
AHR reduced (asthma-induced mice; [6]): 59%
production of IL-4 reduced (interleukin-4 (IL-4)): 35.5%

CCCCC(=O)N(Cc1ccc(-c2ccc(OC)cc2)cc1)c1cccc(F)c1 [AC-1646, N-(3-fluorophenyl)-N-((4′-methoxybiphenyl-4-yl)methyl) pentaneamide]
growth inhibitory effect ([4]; compound 10 μM pre-treated 1 hour): 72.1%

CCCCC/C=C\C[C@@H](O)/C=C/C=C/C=C\[C@@H](O)CCCC(=O)O [LTB4, leukotriene B4, reference compound]
chemotactic motility increase compared with ethanol (DMSO−) (BLT1): 2.8 times
chemotactic motility increase compared with ethanol (DMSO−) (BLT2 [5]): 2.9 times

CCc1cc(C(C)=O)c(O)cc1OCCCCCC(C)(C)c1nnn[nH]1 [LY255283, 1-[5-ethyl-2-hydroxy-4-[[6-methyl-6-(1H-tetrazol-5-yl)heptyl]oxy]phenyl]-ethanone, reference compound]
cell growth compared with control DMSO ([4]; pre-treated with 10 μM): approximately 90%
death of cancer cells on co-treatment with cisplatin [1]: increased
AHR reduced (asthma-induced mice; [6]): 69.2%
production of IL-4 reduced (interleukin-4 (IL-4)): 67.2%
chemotactic motility compared with those treated with the ligand LTB4 (BLT2 [5]; 10 μM pre-treatment): 90%

lysophosphatidic acid [LPA, reference compound]
chemotactic motility increase compared with ethanol (DMSO−) [2]: 3.4 times
